According to article PMC8466554, “Heteroaryl-Ethylenes as New Lead Compounds in the Fight against High Priority Bacterial Strains” (Antibiotics, 2021):
Like-named read-outs stand apart in the source and are kept apart here.

Columns and labels:
CaCo-2 cells = assay: MTT cytotoxicity assay; assay type: cell-based, human; conditions: 24 h of incubation relative to untreated controls
Protocol: To evaluate the biological activity of the PBn series, compounds were screened for toxicity against the colon-rectal cancer cell line CaCo-2 (ATCC HTB-37). These human cancer cells were treated with solutions of the compounds at decreasing concentrations, starting from 100 μM up to 0.01 μM. The reference compound used for these assays was 5-Fluorouracil (5-Fu), a pyrimidine analogue belonging to the family of antimetabolite. […] Briefly, human colorectal adenocarcinoma cells (CaCo-2 HTB-37^TM Colorectal Adenocarcinoma Human, American Type Culture Collection, Manassas, VA, USA) were grown in Dulbecco’s MEM (DMEM) with 10% heat-inactivated fetal bovine serum, 2 mM L-Alanyl-L-Glutamine, penicillin-streptomycin (50 units-50 μg for mL) and incubated at 37 °C in a humidified atmosphere of 5% CO2, 95% air. CaCo-2 cells were plated in 96 well pates and incubated at 37 °C. The PBn series compounds and 5-FU were prepared as a 1 mM solution in 10 mL with 0.01% DMSO. Then, 24 h after plating, cells were treated with 20 μL of each solution. Untreated cells were used as controls. […] The results were read on a multiwell scanning spectrophotometer (AF2200 plate reader, Eppendorf, Milan, Italy), using a wavelength of 569 nm.

P. aeruginosa ATCC27853 = assay: MIC microtiter plate assay; assay type: cell-based, Pseudomonas aeruginosa
S.aureus Mu50-VISA = assay: MIC and MBC microtiter plate assay; assay type: cell-based, Staphylococcus aureus
S.aureus USA300-CAMRSA = assay: MIC and MBC microtiter plate assay; assay type: cell-based, Staphylococcus aureus
[1] = test system: E. faecalis ATCC29212-VSE; assay: MIC and MBC microtiter plate assay; assay type: cell-based
[2] = test system: E. faecalis ATCC51299-VRE; assay: MIC and MBC microtiter plate assay, also with different inocula; assay type: cell-based; conditions: E. faecalis ATCC51299-VRE
E. coli ATCC25922 = assay: as above; assay type: cell-based, Escherichia coli
S.aureus ATCC12598-MSSA = assay: as above; assay type: cell-based, Staphylococcus aureus; conditions: S.aureus ATCC12598-MSSA
K. pneumoniae ATCC700603 = assay: MIC microtiter plate assay; assay type: cell-based, Klebsiella pneumoniae
A. baumannii ATCC17978 = assay: MIC and MBC microtiter plate assay, also with different inocula; assay type: cell-based, Acinetobacter baumannii; conditions: A. baumannii ATCC17978
[3] = test system: K. pneumoniae ATCC BAA-2814; assay: MIC microtiter plate assay; assay type: cell-based, Klebsiella pneumoniae; conditions: K. pneumoniae ATCC BAA-2814 (MDR strain)
S.aureus ATCC29213-MSSA = assay: MIC and MBC microtiter plate assay; assay type: cell-based, Staphylococcus aureus

Row | SMILES | IC50 (CaCo-2 cells) [µM] | MIC (P. aeruginosa ATCC27853) [mg/L] | MIC (P. aeruginosa ATCC27853; value in brackets) [µM] | MIC (S.aureus Mu50-VISA) [mg/L] | MIC (S.aureus Mu50-VISA; value in brackets) [µM] | MIC (S.aureus USA300-CAMRSA) [mg/L] | MIC (S.aureus USA300-CAMRSA; value in brackets) [µM] | MIC [1] [mg/L] | MIC ([1]; value in brackets) [µM] | MIC [2] [mg/L] | MIC ([2]; value in brackets) [µM] | MIC (E. coli ATCC25922) [mg/L] | MIC (E. coli ATCC25922; value in brackets) [µM] | MIC (S.aureus ATCC12598-MSSA) [mg/L] | MIC (S.aureus ATCC12598-MSSA; value in brackets) [µM] | MIC (K. pneumoniae ATCC700603) [mg/L] | MIC (K. pneumoniae ATCC700603; value in brackets) [µM] | MIC (A. baumannii ATCC17978) [mg/L] | MIC (A. baumannii ATCC17978; value in brackets) [µM] | MIC (S.aureus ATCC29213-MSSA) [mg/L] | further results
1 | O=c1[nH]cc(F)c(=O)[nH]1 [5-FU, 5-Fluorouracil, reference compound] | 27.4 | – | – | – | – | – | – | – | – | – | – | – | – | – | – | – | – | – | – | – | IC50 (CaCo-2 cells; Homo sapiens, Caco-2, 24 h): 27.4 µM
2 | CN(C)c1ccc(/C=C/c2ccc3ccccc3[n+]2C)cc1.[I-] [PB1] | 1.2 | > 128 | > 307.47 | 32 | 76.87 | 2 | 4.80 | 32 | 76.87 | 32 | 76.87 | 16 | 38.43 | 2 | 4.80 | > 128 | > 307.47 | 128 | 307.47 | 4 | MIC [3]: > 128 mg/L; MIC ([3]; value in brackets): > 307.47 µM; MIC (S.aureus ATCC29213-MSSA; value in brackets): 9.61 µM
3 | C[n+]1c(/C=C/c2ccc(-c3ccccc3)s2)ccc2ccccc21.[I-] [PB3] | 0.871 | > 128 | 281.10 | 32 | 70.28 | 2 | 4.39 | 32 | 70.28 | 32 | 70.28 | 16 | 35.14 | 8 | 17.57 | > 128 | > 281.10 | 64 | 140.55 | 4 | MIC (S.aureus ATCC29213-MSSA; value in brackets): 8.78 µM
